Converted amounts (≈) assume the structure as drawn. “And” between values parts separate entries of the source, which are not always exact repeats. Identical values can stand only once. Like-named read-outs stand apart in the source and are kept apart here.
Legend:
R. ferrugineus adults = experiment: Antifeedant/insecticidal test on adults with treated sugarcane stem (probit LC50); format: in vivo, Rhynchophorus ferrugineus; settings: after 1 day of treatment, 95% confidence limits in brackets
Procedure: (§1) Over the course of 40 days, an O. basilicum cell suspension was cultivated in this investigation, and then the extract was obtained. […] Long segments of sugarcane stem were employed in the insect breeding lab at King Faisal University’s Research and Training Center to raise adult R. ferrugineus larvae. For this experiment, we used a topical application technique with larvae stored at 4 °C for five minutes to test the extract’s activity. Using a hand-operated micro-applicator (Burkard Manufacturing Co., Ltd., Hertfordshire, UK, collected using a […] micro-syringe), extracts at escalating ratios (10 µL) were injected into the dorsal surface of the larvae (Ito Corp.; MS-N50, Shizuoka, Japan). Five larvae per box in a series of three replicates were fed on sugarcane stem pieces measuring 10 cm in length. The LD50 was calculated by measuring the percentage of dead larvae at 24, 48, 72, and 96 h following a topical application. The antifeedant impact was determined in adults by giving them 10 cm sugarcane stem segments cut in half longitudinally. Long strips of sugarcane stem (32 cm^2) were immersed in the previous serial extract and compound concentration (10 mL) for ten seconds before they were dried in ambient air using a plastic box. Each box included a new pair of larvae (a male and a female). Ten sets of each treatment were performed. Data on how well the subjects ate were evaluated at 24, 48, 72, and 96 h.
(§2) The tissue culture parameters were calculated quantitatively from three independent sets of samples, and the mean SD was used to describe the findings. Toxicity parameters were determined quantitatively using a 10-replicate sample, and means and standard deviations were used to present the data. The median dosage obtained from a dose–response regression was used to calculate the LC50 value. By analyzing the comparative growth rate vs. the crude extract logarithm using least squares regression, the range of LC50 was calculated with 95% confidence. A simple variance study was performed on the increased weight and enzymatic activity data (ANOVA). The distinction between the means was accomplished using the Student–Newman–Keuls (SNK) test. Additionally, SPSS version 25 was used to find p < 0.05 significant deviations from the mean.

[1] = tested on: fourth-instar larvae of R. ferrugineus; experiment: Topical application (contact) to fourth-instar larvae (probit LD50); format: in vivo, Rhynchophorus ferrugineus; settings: after 1 day of treatment, 95% confidence limits in brackets
Procedure: as §1, §2

AChE [2] = experiment: In vitro AChE inhibition, larval homogenate (Ellman); format: biochemical, Rhynchophorus ferrugineus; settings: fourth-instar larvae preparation
Procedure: (§3) The R. ferrugineus were homogenized larvae in a buffer (sodium phosphate, 40 mM, and pH 7.4); then, sodium chloride (10 mM dissolved in 1% (w/v) triton X-100) was added. During centrifugation (Sigma 3–30 KS), the homogenate was chilled to 4 °C and spun at a speed of 5000 rpm (20 min). The supernatant was either immediately put into action for an enzymatic test or frozen and kept at […] for later use. Each test was repeated three times. The protein content was determined using the same protocol employed by Lowry with modification using protein extract (100 µL) combined with an alkaline copper solution and a Folin–Ciocalteu phenol reagent (2 mL and 200 µL, respectively). The intensity of the resulting blue hue was evaluated during 30 min of incubation at 25 °C. Using an ELISA plate reader and a BSA standard curve, we could calculate the protein concentration by analyzing the absorbance at 600 nm (Multiskan SkyHigh Microplate Spectrophotometer, Thermo Fisher Scientific, Waltham, MA, USA).
(§4) The enzyme AChE was assessed using a substrate of acetylthiocholine iodide and evaluated using 5,5′-dithiobis [2-nitrbenzoic acid] (DTNB), according to [94]. Each well contained a sodium phosphate buffer (140 µL) (pH: 8.0; 100 mM), DTNB (10 µL), extract (20 µL)/components at 1, 10, 50, 100, and 1000 µg/mL in DMSO and underwent 15 min of incubation at 25 °C. Acetylthiocholine (ATCh) was added to start the reaction (10 µL). The ATCh enzymatic hydrolysis produced a 5-thio-2-nitrobenzoate anion as a color (yellow) that was detected by measuring its wavelength, i.e., 412 nm, thereby allowing the researchers to track the rate of ATCh hydrolysis (15 min). Each response was performed three times on a microplate and examined using an ELISA plate reader to determine the 412 nm absorbance of the combination (Multiskan SkyHigh Microplate Spectrophotometer). The AChE-specific activity was measured as OD412/mg protein.h. based on observing the effect of raising the quantities of all of these compounds during the tests on the inhibition results, and the inhibitory concentration (IC50) was calculated. Then, a computer algorithm was used to determine the IC50 values (Version 9.01 of GraphPad Prism by Inc., 2020, San Diego, CA, USA).

ACPs [3] = experiment: In vitro ACP inhibition, larval homogenate; format: biochemical, Rhynchophorus ferrugineus; settings: fourth-instar larvae preparation
Procedure: as §3
(§5) Activities of ACPs and ALPs were evaluated using a modified version of the Asakura technique. The ACP test required incubating 100 μL of crude enzyme in a buffer of 650 μL of sodium acetate (pH: 5.0; 50 mM with ACPs) or 250 μL of Tris–HCl (at 50 mM; pH: 8.0 with ALPs) and p-nitrophenyl phosphate (5.5 mM). For 30 min; the various mixes were kept at 37 °C for incubation. Thereafter, 500 μL of NaOH (0.5 N) stopped the reaction. Using an ELISA plate reader, we determined the mixture’s 415 nm absorbance value (Multiskan SkyHigh Microplate Spectrophotometer). The ACP- and ALP-specific activity was estimated as OD 415/mg protein·h.

ALPs [4] = experiment: In vitro ALP inhibition, larval homogenate; format: biochemical, Rhynchophorus ferrugineus; settings: for IC50 ALPs in vitro: fourth-instar larvae preparation
Procedure: as §3, §5

GABA-T [5] = biological target: T1, GABA-T (Rhynchophorus ferrugineus, UniProt A0A834I2E4); experiment: In vitro GABA-T inhibition, larval homogenate; format: biochemical; settings: fourth-instar larvae preparation, listed as salvianolic acid B
T1 sequence (A0A834I2E4 28-494): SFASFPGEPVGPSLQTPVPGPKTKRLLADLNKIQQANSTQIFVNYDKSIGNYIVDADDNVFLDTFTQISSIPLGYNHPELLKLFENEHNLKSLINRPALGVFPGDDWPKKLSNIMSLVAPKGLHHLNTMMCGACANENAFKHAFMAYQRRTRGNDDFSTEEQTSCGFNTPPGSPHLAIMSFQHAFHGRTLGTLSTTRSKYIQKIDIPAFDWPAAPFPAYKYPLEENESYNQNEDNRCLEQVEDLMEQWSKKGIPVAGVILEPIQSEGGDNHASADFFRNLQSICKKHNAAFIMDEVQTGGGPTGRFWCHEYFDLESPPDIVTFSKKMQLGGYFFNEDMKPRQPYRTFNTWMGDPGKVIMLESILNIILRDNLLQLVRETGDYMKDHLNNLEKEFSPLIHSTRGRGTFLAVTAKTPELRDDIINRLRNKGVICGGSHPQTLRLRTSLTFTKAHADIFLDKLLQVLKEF
Procedure: The R. ferrugineus were homogenized larvae in a buffer (sodium phosphate, 40 mM, and pH 7.4); then, sodium chloride (10 mM dissolved in 1% (w/v) triton X-100) was added. During centrifugation (Sigma 3–30 KS), the homogenate was chilled to 4 °C and spun at a speed of 5000 rpm (20 min). The supernatant was either immediately put into action for an enzymatic test or frozen and kept at 20 °C for later use. […] The protein content was determined using the same protocol employed by Lowry with modification [93] using protein extract (100 µL) combined with an alkaline copper solution and a Folin–Ciocalteu phenol reagent (2 mL and 200 µL, respectively). The intensity of the resulting blue hue was evaluated during 30 min of incubation at 25 °C. Using an ELISA plate reader and a BSA standard curve, we could calculate the protein concentration by analyzing the absorbance at 600 nm (Multiskan SkyHigh Microplate Spectrophotometer, Thermo Fisher Scientific, Waltham, MA, USA).
The GABA-T activity was assessed with a modified version of the method published by [96]. The enzyme crude extract (25 μL) added to a solution included Tris-HCl, α-ketoglutarate, 2-mercaptoethanol, β-NAD, and GABA (50, 2, 20, and 3, respectively) at a volume of 1525 μL. […]

AChE [6] = experiment: In vivo AChE inhibition in treated fourth-instar larvae; parameters: species or system Rhynchophorus ferrugineus; settings: fourth-instar larvae treated 24 h
Procedure: as §4
(§6) Each enzyme’s in vivo impact was measured after treating larvae with an extract or pure chemicals. An inhibitor-free test combination served as a negative control. We determined the absorbance of the enzymes throughout a spectrum of wavelengths using a rapid reader for ELISA plates (Multiskan SkyHigh Microplate Spectrophotometer). Extracts and pure chemicals were used to treat R. ferrugineus larvae at previous serial concentrations, and their AChE, ACP, ALP, and GABA-T activity was tested in vivo using the methods outlined above. Larvae spent a day on leaf disks treated with chemicals or extract.

ACPs [7] = experiment: In vivo ACP inhibition in treated fourth-instar larvae; parameters: species or system Rhynchophorus ferrugineus; settings: fourth-instar larvae treated 24 h
Procedure: as §5, §6

ALPs [8] = experiment: In vivo ALP inhibition in treated fourth-instar larvae; parameters: species or system Rhynchophorus ferrugineus; settings: fourth-instar larvae treated 24 h
Procedure: as §5, §6

GABA-T [9] = biological target: T1, GABA-T; experiment: In vivo GABA-T inhibition in treated fourth-instar larvae; settings: fourth-instar larvae treated 24 h
Procedure: The enzyme crude extract (25 μL) added to a solution included Tris-HCl, α-ketoglutarate, 2-mercaptoethanol, β-NAD, and GABA (50, 2, 20, and 3, respectively) at a volume of 1525 μL. Finally, 30 μL of tritonx100 ((1%, (v/v)) was added to the prior combination. We used 30 min of incubation at between 25 and 30 °C. Additionally, we used an ELISA plate reader to determine the absorbance of the combination at 340 nm (Multiskan SkyHigh Microplate Spectrophotometer). Specific activities of GABA-T were measured as OD 340/mg of protein·h.

[10] = Rhynchophorus ferrugineus, 24 h, read-out: LC50

With Salvianolic acid B the LC50 (R. ferrugineus adults) was 1195 (1121–1278) µg/mL, the LD50 [1] was 11.1 (10.1–12.18) µg/Larvae and the LD50 ([1]; listed as salvianolic acid B) was 11.1 µg/Larvae. The “IC50 AChE in vitro” value (AChE [2]) was 117 ± 1.08 µg/mL, the “IC50 AChE in vitro” value (AChE [2]; listed as salvianolic acid B) was 116.7 µg/mL and the “IC50 ACPs in vitro” value (ACPs [3]; listed as salvianolic acid B) was 98.2 µg/mL. For the same molecule, the IC50 ALP in vitro (ALPs [4]) was 105 µg/mL, the “IC50 ALPs in vitro” value (ALPs [4]; listed as salvianolic acid B) was < 200 µg/mL and the “IC50 GABA-T in vitro” value (GABA-T [5]) was 197.2 µg/mL. The “IC50 AChE in vivo” value (AChE [6]) was 229.7 µg/mL, the “IC50 ACPs in vivo” value (ACPs [7]) was < 330 µg/mL and 182.3 µg/mL and the “IC50 ALPs in vivo” value (ALPs [8]) was 194.6 µg/mL. For the same molecule, the “IC50 GABA-T in vivo” value (GABA-T [9]) was 324.8 µg/mL.
In the case of `O=C(O)C[C@H](C(=O)O)[C@@H](O)C(=O)O` [Isocitric acid], the LC50 (R. ferrugineus adults; [10]) is reported as 1800 µg/mL (≈ 9340 µM), the LD50 [1] is reported as 22.7 (21.4–23.8) µg/Larvae and the LD50 ([1]; listed as isocitric acid) is reported as 22.7 µg/Larvae. The “IC50 AChE in vitro” value (AChE [2]) was 197.3 µg/mL and 197 ± 1.76 µg/mL, the “IC50 ACPs in vitro” value (ACPs [3]) was 192.4 µg/mL (≈ 1000 µM) and the IC50 ALP in vitro (ALPs [4]) was 195 µg/mL (≈ 1010 µM). For the same molecule, the “IC50 ALPs in vitro” value (ALPs [4]) was < 200 µg/mL, the “IC50 AChE in vivo” value (AChE [6]) was 494 ± 1.76 µg/mL and the “IC50 AChE in vivo” value (AChE [6]; listed as isocitric acid) was 494.2 µg/mL. For the same molecule, the “IC50 ACPs in vivo” value (ACPs [7]; listed as isocitric acid) was 415.6 µg/mL and the “IC50 ALPs in vivo” value (ALPs [8]; listed as isocitric acid) was 448.3 µg/mL.
In the case of `O=C(C=Cc1ccc(O)c(O)c1)OC(Cc1ccc(O)c(O)c1)C(=O)OC1OC(CO)C(O)C(O)C1O` (stereo not drawn) [Rosmarinic acid glucoside], the LC50 (R. ferrugineus adults; [10]) is reported as 1230 µg/mL (≈ 2350 µM), the LD50 ([1]; listed as Rosmarinyl glucoside) is reported as 17.2 (15.7–18.1) µg/Larvae and the LD50 ([1]; listed as rosmarinyl glucoside) is reported as 17.2 µg/Larvae. For the same molecule, the “IC50 AChE in vitro” value (AChE [2]) was 89 ± 0.85 µg/mL, the “IC50 AChE in vitro” value (AChE [2]; listed as rosmarinyl glucoside) was 89.4 µg/mL and the “IC50 ACPs in vitro” value (ACPs [3]; listed as rosmarinyl glucoside) was 123.6 µg/mL (≈ 237 µM). The IC50 ALP in vitro (ALPs [4]) was 120 µg/mL (≈ 229 µM), the “IC50 ALPs in vitro” value (ALPs [4]; listed as rosmarinyl glucoside) was < 200 µg/mL and the “IC50 AChE in vivo” value (AChE [6]) was 313 ± 0.85 µg/mL. The “IC50 AChE in vivo” value (AChE [6]; listed as rosmarinyl glucoside) was 312.7 µg/mL, the “IC50 ACPs in vivo” value (ACPs [7]; listed as rosmarinyl glucoside) was 318.8 µg/mL and the “IC50 ALPs in vivo” value (ALPs [8]; listed as rosmarinyl glucoside) was 387.4 µg/mL.
